# Source: patent publication US10421770B2, “Pharmaceutical composition of carboplatin based co-crystals and use thereof” (SYN-NAT PRODUCTS ENTERPRISE LLC, priority 2015, dated 2019)
# Like-named read-outs stand apart in the source and are kept apart here.
# Legend:
# HEK293 cells = assay: cell viability (MTS) assay, embryonic kidney cell line HEK293; assay type: cell-based, human; conditions: HEK293 immortalized fetal kidney cells, 0.01 to 300 μM, OD490, read-out: IC50 to reduce HEK293 cells
# Description: HEK293 cells are an immortalized human fetal kidney cell line. […] The index of cell growth repression ratio was obtained by comparing the OD490 data of treatment group to the negative control. The drug response rate IC50 was calculated with the SPSS 16.0 system.
# (§1) Cell culture: Prostate cancer cell lines LNCaP and PC-3 were purchased from ATCC (Manassas, Va.). The fetal hepatocytes HL-7002 and human embryonic kidney cells […] were purchased from ATCC. The cells were cultured in RPMI+5% Fetal Bovine Serum (FBS).
# (§2) The cells treated with the solvents were used as the negative control, and cisplatin and docetaxel were used as the positive controls. The cells were monitored daily, and the cell viability was evaluated with the Promega CellTiter 96 AQueous One Solution Cell Proliferation Assay (Promega, Madison, Wis., USA) according to the manufacture manuals. The cell viability was monitored at OD490 reading in a bio-spectrometer (Perkin Elmer, Walthan, Mass., USA).
# (§3) Data analysis: The OD490 reading data were collected hourly from 1 h to 4 h after the addition of lysis buffer. The index of cell growth repression ratio was obtained by comparing the OD490 data of treatment to the negative control. The drug response rate IC50 was calculated with the SPSS 16.0.
# (§4) The index of cell growth repression ratio was obtained by comparing the OD490 data of treatment group to the negative control. The drug response rate IC50 was calculated with the SPSS 16.0 system.
# (§5) Cell culture: Colorectal cancer cell lines HCT-116 and HT29 were purchased from ATCC (Manassas, Va.). The fetal hepatocytes HL-7002 and human embryonic kidney cells […] were purchased from ATCC. The cells were cultured in RPMI+5% Fetal Bovine Serum (FBS).
# HT29 cells = assay: cell viability (MTS) assay, HT29 colorectal cancer cells; assay type: cell-based; conditions: OD490, read-out: IC50 to reduce HT29 cell number
# Description: HT29 cells are a colorectal cancer cell line. […] The index of cell growth repression ratio was obtained by comparing the OD490 data of treatment group to the negative control. The drug response rate IC50 was calculated with the SPSS 16.0 system.
# as §5, §2, §3
# HL-7002 cells = assay: cell viability (MTS) assay, fetal hepatocytes HL-7002; assay type: cell-based, human; conditions: HL-7002 immortalized fetal hepatic cells, 0.01 to 300 μM, OD490, read-out: IC50 to reduce HL-7002 cell number
# Description: as §4, §1, §2, §3
# The index of cell growth repression ratio was obtained by comparing the OD490 data of treatment group to the negative control. The drug response rate IC50 was calculated with the SPSS 16.0 system. […]
# HCT-116 cells = assay: cell viability (MTS) assay, HCT-116 colorectal cancer cells; assay type: cell-based; conditions: drugs 0.01 to 300 μM, OD490, read-out: IC50 to reduce HCT-116 cell number
# Description: HCT-116 cells are a colorectal cancer cell line. […] The index of cell growth repression ratio was obtained by comparing the OD490 data of treatment group to the negative control. The drug response rate IC50 was calculated with the SPSS 16.0 system.
# as §5, §2, §3
# PC-3 cells = assay: cell viability (MTS) assay, PC-3 prostate cancer cells; assay type: cell-based; conditions: Homo sapiens, drugs 0.01 to 300 μM, OD490, read-out: IC50 to reduce PC-3 cell number
# Description: The index of cell growth repression ratio was obtained by comparing the OD490 data of treatment group to the negative control. The drug response rate IC50 was calculated with the SPSS 16.0 system. […] The fetal hepatocytes HL-7002 and human embryonic kidney cells […] were purchased from ATCC. The cells were cultured in RPMI+5% Fetal Bovine Serum (FBS). […] The cells treated with the solvents were used as the negative control, and cisplatin and docetaxel were used as the positive controls. The cells were monitored daily, and the cell viability was evaluated with the Promega CellTiter 96 AQueous One Solution Cell Proliferation Assay (Promega, Madison, Wis., USA) according to the manufacture manuals. The cell viability was monitored at OD490 reading in a bio-spectrometer (Perkin Elmer, Walthan, Mass., USA). Data analysis: The OD490 reading data were collected hourly from 1 h to 4 h after the addition of lysis buffer. The index of cell growth repression ratio was obtained by comparing the OD490 data of treatment to the negative control. The drug response rate IC50 was calculated with the SPSS 16.0.
# LNCaP cells = assay: cell viability (MTS) assay, LNCaP prostate cancer cells; assay type: cell-based; conditions: Homo sapiens, drugs 0.01 to 300 μM, OD490, read-out: IC50 to reduce LNCaP cell number
# Description: The index of cell growth repression ratio was obtained by comparing the OD490 data of treatment group to the negative control. The drug response rate IC50 was calculated with the SPSS 16.0 system. Cell culture: Prostate cancer cell lines LNCaP and PC-3 were purchased from ATCC (Manassas, Va.). The fetal hepatocytes HL-7002 and human embryonic kidney cells […] were purchased from ATCC. The cells were cultured in RPMI+5% Fetal Bovine Serum (FBS). […] The cells treated with the solvents were used as the negative control, and cisplatin and docetaxel were used as the positive controls. The cells were monitored daily, and the cell viability was evaluated with the Promega CellTiter 96 AQueous One Solution Cell Proliferation Assay (Promega, Madison, Wis., USA) according to the manufacture manuals. The cell viability was monitored at OD490 reading in a bio-spectrometer (Perkin Elmer, Walthan, Mass., USA). Data analysis: The OD490 reading data were collected hourly from 1 h to 4 h after the addition of lysis buffer. The index of cell growth repression ratio was obtained by comparing the OD490 data of treatment to the negative control. The drug response rate IC50 was calculated with the SPSS 16.0.
"IC50 (HT29 cells; Homo sapiens, HT-29, drugs 0.01 to 300 μM) [µM]",IC50 (HCT-116 cells; Homo sapiens) [µM],SMILES,IC50 (HEK293 cells; Homo sapiens) [µM],"IC50 (HL-7002 cells; Homo sapiens, Hepatocyte) [µM]",IC50 (PC-3 cells) [µM],IC50 (LNCaP cells) [µM],IC50 (HEK293 cells) [µM],IC50 (HT29 cells; drugs 0.01 to 300 μM) [µM],IC50 (HL-7002 cells) [µM],IC50 (HCT-116 cells) [µM]
7.56,4.21,"O=c1[nH]cc(F)c(=O)[nH]1 [5-FU, fluorouracil]",3.74,4.42,–,–,–,–,–,–
–,–,CC(=O)O[C@@]12CO[C@@H]1C[C@H](O)[C@@]1(C)C(=O)[C@H](O)C3=C(C)[C@@H](OC(=O)[C@H](O)[C@@H](NC(=O)OC(C)(C)C)c4ccccc4)C[C@@](O)([C@@H](OC(=O)c4ccccc4)[C@H]21)C3(C)C [docetaxel],1.74,–,49.9,4.03,–,–,–,–
–,–,O=C1[O][Pt]2([NH][C@@H]3CCCC[C@H]3[NH]2)[O]C1=O [oxaliplatin],–,–,–,–,10.1,30,2.44,8.15
